# From PMC6116245 (Viruses, 2018)
# “And” between values parts separate entries of the source, which are not always exact repeats. Equal entries are not always repeated. “Also recorded” adds a separate entry of the source. Where two headings read alike, the source gives them in different places.
# Assays:
# FCV strain F-9 = experiment: FCV plaque reduction assay in CRFK cells; details: for Therapeutic index (TI = CC50/EC50): CRFK CC50 / FCV plaque reduction EC50; for Antiviral effect against FCV in cell culture (in words): plaque reduction assay
# murine norovirus [1] = test system: murine norovirus; parameters: method as in ref 47, 57 = [47]; details: cell culture-based assays; cited from earlier work
# [2] = Cytotoxicity study, CellTitre-Blue viability assay; details: cat
# [3] = test system: human GI.1 norovirus replicon; parameters: method as in ref 59 = [59]; details: cell culture; cited from earlier work
# human norovirus replicon = test system: human norovirus replicon; parameters: method as in ref 47, 57 = [47]; details: cell culture-based assays; cited from earlier work
# [4] = test system: FCV RNA in infected CRFK cells; experiment: FCV genome reduction assay by RT-qPCR; format: cell-based, Feline calicivirus; details: 24 h, MOI 0.0005
# human norovirus = test system: human norovirus; parameters: method as in ref 60 = [60]; details: B-cell culture system; cited from earlier work
# [5] = test system: Crandell Rees Feline Kidney (CRFK) cells; experiment: Cytotoxicity study, CellTitre-Blue viability assay; details: read-out: Cell Viability CC50; CRFK cells, 48 h, CellTitre-Blue
# [6] = molecular target: FCV RdRp (recombinant FCV Pro-Pol) (Feline calicivirus, UniProt Q66914); experiment: Fluorescent RdRp assay (PicoGreen, poly(C) template); details: for RdRp Activity [% of Mock at 10 µM]: 10 µM compound, remaining activity relative to mock; for Reduction of RdRp activity compared to mock controls: fixed concentration of 10 µM
# [7] = molecular target: FCV protease (recombinant FCV Pro-Pol) (Feline calicivirus, UniProt Q66914); experiment: Protease FRET activity assay; format: biochemical, Feline calicivirus (FCV Urbana); details: for Inhibitory effect against FCV protease (in words): FRET assay, up to 50 µM
# in vitro = details: cat, Cell Viability CC50
# [8] = test system: Crandell Rees Feline Kidney (CRFK) cells
# FCV [9] = test system: FCV; parameters: method as in ref 29, 30 = [29]; details: cell-based assays; read-out: EC50 against FCV; cited from earlier work
# FCV [10] = test system: FCV; parameters: method as in ref 26 = [26]; details: read-out: EC50 against FCV in vitro; cited from earlier work
# rotavirus = test system: rotavirus; parameters: method as in ref 54, 63 = [54]; details: cell culture; cited from earlier work
# murine norovirus [11] = test system: murine norovirus; parameters: method as in ref 64 = [64]; details: cited from earlier work
# adenovirus = test system: adenovirus; parameters: method as in ref 54, 63 = [54]; details: cell culture; cited from earlier work
# GI norovirus replicon = test system: GI norovirus replicon; parameters: method as in ref 64 = [64]; details: cleared the replicon from the host cells; cited from earlier work
# canine coronavirus = test system: canine coronavirus; parameters: method as in ref 54, 63 = [54]; details: cell culture; cited from earlier work
# [12] = in vivo; cited from earlier work
# chikungunya replicon = test system: chikungunya replicon; parameters: method as in ref 75 = [75]; details: cited from earlier work
# HCV infectious virus = details: read-out: EC50 infectious HCV in cell cultures; cited from earlier work
# [13] = test system: human norovirus protease (genogroup I and II); parameters: method as in ref 29, 52 = [29]; details: FRET-based assays; cited from earlier work
# [14] = in vivo; cited from earlier work; remark: listed apart in the source
# FCV [15] = test system: FCV; parameters: method as in ref 25 = [25]; details: in vitro assays; cited from earlier work
# murine norovirus RdRp = test system: murine norovirus RdRp; parameters: method as in ref 59 = [59]; details: cited from earlier work
# human norovirus RdRp = test system: human norovirus RdRp; parameters: method as in ref 59 = [59]; details: cited from earlier work
# [16] = Feline calicivirus, CRFK, 24 h, read-out: Plaque Reduction Assay EC50, FCV in CRFK cells, 24 h
# [17] = read-out: Plaque Reduction Assay EC50, FCV in CRFK cells, 24 h
# [18] = Crandell Rees Feline Kidney (CRFK) cells, Cell Viability CC50, CRFK cells, 48 h, CellTitre-Blue
# [19] = FRET, 50 µM substrate, read-out: In vitro Protease IC50
# [20] = Feline calicivirus, CRFK, 24 h, read-out: Inhibition of plaque formation
# [21] = Feline calicivirus, CRFK, 24 h, read-out: Plaque Reduction Assay EC50
# FCV RdRp (recombinant FCV Pro-Pol), sequence (Q66914 1072-1763): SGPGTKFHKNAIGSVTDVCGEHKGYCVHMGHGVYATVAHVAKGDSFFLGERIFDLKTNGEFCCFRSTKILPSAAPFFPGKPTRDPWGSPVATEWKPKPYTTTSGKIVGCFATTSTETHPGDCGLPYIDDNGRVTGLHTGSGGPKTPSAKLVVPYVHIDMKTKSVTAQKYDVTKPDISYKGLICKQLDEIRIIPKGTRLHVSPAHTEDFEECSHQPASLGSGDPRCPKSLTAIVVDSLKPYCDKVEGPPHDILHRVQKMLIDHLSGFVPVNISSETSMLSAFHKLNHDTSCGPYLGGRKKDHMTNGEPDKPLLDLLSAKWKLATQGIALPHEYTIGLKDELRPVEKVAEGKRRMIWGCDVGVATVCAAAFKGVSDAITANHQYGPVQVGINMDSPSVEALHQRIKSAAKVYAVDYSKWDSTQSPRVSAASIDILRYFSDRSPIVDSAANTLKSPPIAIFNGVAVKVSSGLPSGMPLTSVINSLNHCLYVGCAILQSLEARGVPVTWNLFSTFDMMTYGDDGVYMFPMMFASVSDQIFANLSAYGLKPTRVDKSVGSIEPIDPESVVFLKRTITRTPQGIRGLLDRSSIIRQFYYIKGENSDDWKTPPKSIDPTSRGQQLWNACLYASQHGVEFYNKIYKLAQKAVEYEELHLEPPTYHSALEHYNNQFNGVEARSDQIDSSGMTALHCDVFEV
# FCV protease (recombinant FCV Pro-Pol), sequence (Q66914 1072-1763): as above
smiles,measurement,setting,value
"C[C@@]1(O)[C@H](O)[C@@H](CO)O[C@H]1n1ccc(N)nc1=O [2CMC, 2′-C-methylcytidine]",Therapeutic index (TI = CC50/EC50),FCV strain F-9,> 40
same,EC50,FCV strain F-9; [16],2.5 µM
same,EC50,FCV strain F-9; [17],2.6 µM
same,EC50,murine norovirus [1],~2 µM
same,CC50 at 48 h,[2]; [18],> 100 µM
same,EC50,[3],8.2 µM
same,EC50,human norovirus replicon,~18 µM
same,Reduction of FCV RNA levels compared to mock-treated cells,[4]; 10 µM,95%
same,EC50,human norovirus,0.3 µM
COc1ccc2c(c1)[C@@H]1C[C@]1(C(=O)N1[C@@H]3CC[C@H]1CN(C)C3)Cn1c-2c(C2CCCCC2)c2ccc(C(=O)NS(=O)(=O)N(C)C)cc21 [Beclabuvir],CC50 at 48 h,[2]; [18],< 30 µM
same,CC50,[5],27.5 µM
same,RdRp Activity [% of Mock at 10 µM],[6],92.2%
same,Reduction of RdRp activity compared to mock controls,[6],≤ 10%
"CC(C)C[C@H](NC(=O)[C@@H](NC(=O)N[C@@H](Cc1ccccc1)C(=O)O)[C@@H]1CCN=C(N)N1)C(=O)N[C@H](C=O)Cc1ccccc1 [Chymostatin, chymostatin]",Inhibitory effect against FCV protease (in words),[7],no inhibitory effect
same,IC50,[7]; [19],> 50 µM
CC(=O)OCC(CCn1cnc2cnc(N)nc21)COC(C)=O [Famciclovir],CC50 at 48 h,in vitro,> 100 µM
same,EC50,FCV strain F-9; [16],> 50 µM
same,inhibition at 50 µM,"FCV strain F-9; Feline calicivirus, CRFK, read-out: Inhibition of plaque formation",10%
same,Antiviral effect against FCV in cell culture (in words),FCV strain F-9,no antiviral effect observed
CC(C)C[C@H](NC(=O)OCc1ccccc1)C(=O)N[C@@H](CC1CCNC1=O)C(O)S(=O)(=O)O (some centres unmarked) [GC376],EC50,FCV strain F-9; [17],> 10 µM
same,IC50,[7]; [19],18 µM and 18.7 µM
same,CC50,[8],> 100 µM
same,EC50,FCV [9],35 µM and 35.2 µM
CC(C)C[C@H](NC(=O)OCc1ccccc1)C(=O)N[C@@H](C[C@@H]1CCNC1=O)C(O)S(=O)(=O)[O-].[Na+] (some centres unmarked) [GC376],Antiviral effect against FCV in cell culture (in words),FCV strain F-9,did not display antivirals effects
same,Inhibition of FCV protease,[7]; 50 µM,75%
O=C(O)c1ccc2c(c1)nc(-c1ccc(OCc3cc(N4CCCC4=O)ccc3-c3ccc(Cl)cc3)cc1F)n2C1CCCCC1 [JTK-109],RdRp Activity [% of Mock at 10 µM],[6],89.8%
same,Reduction of RdRp activity compared to mock controls,[6],≤ 10%
OC(c1cc(C(F)(F)F)nc2c(C(F)(F)F)cccc12)C1CCCCN1 (centres unmarked) [Mefloquine],EC50,FCV [10],6.03 µM
CC(C)C[C@H](NC(=O)[C@H](Cc1cccc2ccccc12)NC(=O)OCc1ccccc1)C(=O)N[C@H](C=O)C[C@@H]1CCNC1=O [NPI52],EC50,FCV [9],0.02 µM
"CC(=O)Oc1ccccc1C(=O)Nc1ncc([N+](=O)[O-])s1 [Nitazoxanide, nitazoxanide]",EC50 rotavirus replication,rotavirus,0.5 µg/mL
same,Activity against murine norovirus (in words),murine norovirus [11],ineffective
same,EC50 adenovirus replication,adenovirus,0.2 µg/mL
same,Therapeutic index (TI = CC50/EC50),FCV strain F-9,21.1
same,EC50,FCV strain F-9; [16],0.5 µM
same,EC50,"FCV strain F-9; Feline calicivirus, CRFK, read-out: Plaque reduction EC50, FCV in CRFK cells, same value given in µg/mL",0.2 µg/mL
same,EC50,FCV strain F-9; [17],0.6 µM
same,IC50,[7],> 10 µM
same,CC50 at 48 h,[2]; [18],12.7 µM
same,IC50,[6],> 10 µM
same,Concentration reported to inhibit GI norovirus replicon replication,GI norovirus replicon,5 µg/mL
same,Reduction of FCV RNA levels compared to mock-treated cells,[4]; 2.5 µM,80%
same,EC50 canine coronavirus replication,canine coronavirus,1 µg/mL
same,Side-effects observed in cats,[12],diarrhea and vomiting
Cc1nc(N=Nc2cc(S(=O)(=O)O)c3cc([N+](=O)[O-])cc(S(=O)(=O)O)c3c2)c(COP(=O)(O)O)c(C=O)c1O [PPNDS],Inhibition of plaque formation,"FCV strain F-9; 10 µM, 24 h",< 10%
same,Antiviral effect against FCV in cell culture (in words),FCV strain F-9,did not display antivirals effects
same,EC50,FCV strain F-9; [17],> 10 µM
same,CC50,[5],> 100 µM
same,RdRp Activity [% of Mock at 10 µM],[6],7.4%
same,Reduction of RdRp activity compared to mock controls,[6],92.6%
same,IC50,"[6]; read-out: RdRp Activity IC50, dose-response 0.1-100 µM",2.7 µM
"O=c1c(O)c(-c2ccc(O)c(O)c2)oc2cc(O)c(O)c(O)c12 [Quercetagetin, quercetagetin]",inhibition at 10 µM,FCV strain F-9; [20],< 10%
same,EC50,FCV strain F-9; [21],> 10 µM
same,Antiviral effect against FCV in cell culture (in words),FCV strain F-9,did not display antivirals effects; also recorded: did not inhibit FCV plaque formation
same,IC50,chikungunya replicon,43.5 µM
same,IC50,[6],2.8 µM
same,RdRp Activity [% of Mock at 10 µM],[6],11.7%
same,Reduction of RdRp activity compared to mock controls,[6],88.3%
same,EC50,HCV infectious virus,40.2 µM
"CCOC(=O)/C=C/[C@H](C[C@@H]1CCNC1=O)NC(=O)[C@@H](CC(=O)[C@@H](NC(=O)c1cc(C)on1)C(C)C)Cc1ccc(F)cc1 [Rupintrivir, rupintrivir]",IC50,[7],> 50 µM
same,Inhibitory effect against FCV protease (in words),[7],no inhibitory effect
same,EC50,FCV [9],> 50 µM
same,CC50 at 48 h,[2]; [18],> 100 µM
same,IC50,[13],< 1 µM
CC(C)OC(=O)[C@H](C)N[P@](=O)(OC[C@H]1O[C@@H](n2ccc(=O)[nH]c2=O)[C@](C)(F)[C@@H]1O)Oc1ccccc1 [Sofosbuvir],inhibition at 10 µM,FCV strain F-9; [20],< 10%
same,EC50,FCV strain F-9; [21],> 10 µM
same,CC50 at 48 h,[2],> 100 µM
"NC(=O)c1nc(F)c[nH]c1=O [T-705, Favipiravir]",inhibition at 10 µM,FCV strain F-9; [20],< 10%
same,EC50,FCV strain F-9; [16],> 10 µM
same,CC50 at 48 h,[2]; [18],> 100 µM
COc1ccc2c(c1)C=C1Cn3c-2c(C2CCCCC2)c2ccc(cc23)C(=O)NS(=O)(=O)N(C)CCOCCN(C)C1=O [TMC-647055],CC50 at 48 h,[2]; [18],< 30 µM
same,CC50,[5],27.1 µM
same,RdRp Activity [% of Mock at 10 µM],[6],93.5%
same,Reduction of RdRp activity compared to mock controls,[6],≤ 10%
CC(C)[C@H](N)C(=O)O[C@@H]1[C@@H](CO)O[C@@H](n2ccc(N)nc2=O)[C@]1(C)O [Valopicitabine],Adverse events,[14],dose-related gastrointestinal adverse events
COC(=O)/C=C/c1cccc(N(Cc2ccc(-c3ccc(N(C)C)cc3)cc2)C(=O)C2CCCCC2)c1 [fexaramine],Blocking of FCV entry (in words),FCV [15],effective at blocking FCV entry
C[C@@]1(O)[C@H](O)[C@@H](COP(=O)(O)OP(=O)(O)OP(=O)(O)O)O[C@H]1n1ccc(N)nc1=O [tri-phosphorylated 2CMC],IC50,murine norovirus RdRp,1.4 µM
same,IC50,human norovirus RdRp,2.4 µM
